Reference: patent EP4349409A1, “COMPOUNDS FOR THE MANAGEMENT OF CELL STEMNESS AND INVASION IN CANCER AND RELATED DISEASES” (Instituto Biomar S.A., priority 2022, dated 2024)
pIC50: −log10 of the molar value.

Experiments:
G144-GNSC cells = assay: Transcriptome comparison (DESeq2) of G144-GNSC cells after treatment; assay type: cell-based, human; details: DESeq2, p-adj<0.01, treated vs non-treated G144-GNSC
Description: Finally, to elucidate the molecular basis of BMT9 effect on the stemness potential of the GNSCs, we compared the transcriptome of non-treated G144-GNSC cells with those after BMT9 treatment. The DESeq2 analysis identified 6163 differentially expressed genes (DEGs) with a p-adj<0.01. […] Among the found DEGs we found GSC markers like PROM1(CD133), LGR5, or SOX1 and SOX4, as well as key regulators involved in maintenance of the cancer cell stemness state like SOX9 (Wang et al., 2018)(Aldaz et al., 2020), CDC20 (Gujar et al., 2016) or AURKA, known to govern self-renewal capacity in glioma-initiating cells via stabilization/activation of β-catenin/Wnt signaling (Xia et al., 2013) and proposed, together with CCNA2, and TPX2, as ideal drug targets in GBM (Du et al., 2020). Table 3. Correlation of GNSCs transcriptomic profiles after BMT9 treatment with published gene signatures of stemness.

G144 = assay: Scratch (wound healing) assay, G144; assay type: cell-based, human; details: G144, 4.5µM, 24 h
Experimental: (§1) The effect of BMT9 in cell migration was evaluated using scratch assays, also known as wound healing assays. Cells were seeded in culture inserts for wound healing assays (Ibidi) at a cell density of 35,000 cells/cm^2; 24 h later the insert was removed to create the wound, and fresh medium was added with the corresponding treatment. Microscopy images were acquired at the time of treatment and 24 h later, using a Leica DMI3000 phase contrast microscope. Analysis was performed using the ImageJ software (Schindelin et al., 2012) and the MRI wound healing tool plugin (Suarez-Arnedo et al., 2020). Cell-free area was measured at the two indicated time points and the wound closure percentage relative to the starting point was calculated for each well individually. This assay was performed in G144 and in G179 cells (Figure 10 B and C, respectively).

CD133 = CD133 stemness marker flow cytometry in G144 cells; assay type: cell-based, human; details: G144, 48 hours; BMT9 4.5-9 µM, TMZ 500 µM, BCNU 250 µM
Experimental: Next, we asked if BMT9 treatment at IC50 could specifically affect the stemness of GNSC. To address this point, cells were seeded and treated 24 h later with BMT9 (4.5-9 µM), TMZ (500 µM) or BCNU (250 µM). After 48 hours of treatment, cells were collected and stained with a CD133 (stemness marker) antibody (AC133, Milyenty Biotec) or the corresponding Ig-isotype control. Flow cytometric analysis were performed with the previously mentioned equipment.

[1] = system: normal human fetal neural stem cells-NSC; assay: Long term MTT viability, normal neural stem cells; assay type: cell-based; details: CD133-positive NSC, 1.125-4.5 µM
Experimental: Previous studies have reported that the molecular signature of the GNSC G144 cell line corresponds to a 'proneural' subtype of GB with NSC features (Pollard et al., 2009; Danovi et al., 2013). Thus, to test BMT9 specificity we compared cellular viability when treating CD133-positive cells (either GNSCs or normal human fetal neural stem cells-NSC) versus CD133-negative human embryonic fibroblast (HEFs) (Figure 8A). MTT-based cytotoxicity assay (Figure 7B-D) were performed as previously described.

P1-TP73 promoter = assay: P1-p73-Fluc-DsRed reporter screening of natural compounds in U373 cells; assay type: cell-based, human; details: U373, 8 µg/ml, 48 h after treatment
Experimental: The conventional GB cell line U373 was used to perform a low-throughput chemical screen to identify P1-TP73-promoter regulators from a panel of 51 natural compounds with novel chemical structures (BMT-1 to BMT-51). Cells were seeded on black microplates and 24 h later they were transfected with 1 µg of P1-p73-Fluc-DsRed plasmid using Lipofectamine 3000™ reagent (ThermoFisher) following the manufacturer's instructions. Six hours later, transfected cells were treated either with 8 µg/ml of any of the tested compounds or with the drugs used as first line glioblastoma treatment: the methylating agent temozolomide (TMZ) and the chloroethyl-derivative of nitrosourea carmustine (BCNU), or equivalent volumes of DMSO. […] The compound BMT18 was also found to have autofluorescence.

GNSC = assay: Immunostaining for Nestin, Tuj1 and GFAP (differentiation) in GNSC; assay type: cell-based; details: 4.5 µM
Experimental: Moreover, we asked whether BMT9, at IC50 concentration, induced differentiation of these GNSC. For these experiments, cells were seeded under proliferation conditions and treated with BMT9 at 4.5 µM for 72 h. Cells were fixed with 3.7% paraformaldehyde for 15 min and immunostained with Nestin, Tuj1 and GFAP specific antibodies. Samples were analyzed using a Zeiss LSM800 confocal microscopy. To quantify the percentage of neural (Tuj-1) (Figure 7D) and astrocytic (GFAP+) (Figure 7E) differentiated cells, positive cells for each marker were manually counted and compared with the total number of cells.

G179 [2] = assay: Scratch (wound healing) assay, G179; assay type: cell-based; details: G179, 4.5µM, 24 h
Experimental: as §1

G144 R700 = assay: MTT assay, TMZ-resistant clone G144 R700; assay type: cell-based; details: Homo sapiens, 72 hours
Description: While the first line therapy of gliomas has proven its effectiveness and improved clinical outcomes, acquired chemoresistance to alkylating agents has been identified as a major cause of treatment failure (Sarkaria et al., 2008). In a murine model of GB, long-term treatment with subtoxic TMZ doses enriched the side population of cancer stem cells, increasing the tumor aggressiveness (Bleau et al., 2009). Thus, we generated TMZ-resistant G144-clones that were selected upon treatment with TMZ either at 500 µM or 700 µM for several months (R500 and R700, respectively). The obtained clones maintained CD133 stem marker expression (Figure 9A). We then analyzed BMT9 dose-dependent effect on cell viability, by MTT assay, comparing the resistant clones to parental cells.

G179 [3] = assay: MTT-based cytotoxicity assay, G179; assay type: cell-based; details: G179, 72 h after treatment

Structure (SMILES): C=C1C2CCC(C)(C3COc4c(C)c(OC)c5c(c4C3O)C(O)OC5=O)C1CCC2(C)C (stereo not drawn) [BMT9]
- differentially expressed genes (DEGs) (G144-GNSC cells): 6163
- cell migration (wound closure) (G144): significantly impaired cell migration
- CD133 expression levels (Mean Fluorescence Intensity) (CD133): significantly reduced
- percentage of CD133 positive cells (CD133): significantly reduced
- cellular viability in long term culture [1]: affected
- P1-TP73-promoter activity (fluorescence normalized to DMSO exposed cells) (P1-TP73 promoter): strongest and most reproducible repressive effect
- pre-selection: modulatory effect of a 2-fold fluorescence increase or a 0.5-fold reduction (P1-TP73 promoter; direction per compound not given): pre-selected
- expression of the stem cell marker Nestin (GNSC; 72 h (data not shown)): reduced the expression of the stem cell marker Nestin
- neural differentiation (Tuj1 and GFAP positive cells) (GNSC; 72 h, proliferating culture conditions): induced neural differentiation
- cell migration (wound closure) (G179 [2]): significantly impaired cell migration
- pIC50 (G144 R700): 5.35 to 5.47
- concentration as low as which still reduced viability (G179 [3]): 6.75 µM
